Results: patent EP4781984A1 (Beyang Therapeutics Co., Ltd., priority 2023, dated 2025)
Converted amounts (≈) assume the structure as drawn. One block for each compound: values may come before it.

Legend:
[1] = Ophthalmic formulations based on in situ salt formation technology: composition and state (Example 8); type: physicochemical; conditions: for State Description: pH ~7; for State Description: pH / State Description: state: Table 17: 5 mg/mL, HP-β-CD 15, Poloxamer 188 1, Gelrite 0.15, Tris-HCl (pH 6.8) 25mM
Description: In the following ophthalmic formulation preparation examples, "solution" refers to a clear, transparent liquid without visible insoluble matter. "Near-clear solution" refers to a liquid that appears close to a solution upon visual observation but may contain a small amount of insoluble particles or have a slightly opaque color. "Suspension" refers to a liquid that is visibly turbid or opaque. "Gel" refers to a completely or partially gel-like solid.
Example 8: Ophthalmic Formulation Based on In Situ Salt Formation Technology
Therefore, by preparing ophthalmic formulation compositions based on in situ salt formation technology, the solubility of the compounds can be further improved.
According to the formulation composition shown in the table below, weigh the compound powder, add 50% of the total volume (v/v) of a 30% (w/v) aqueous solution of hydroxypropyl-β-cyclodextrin (containing surfactant), and disperse by sonication; next, add an appropriate volume of pH regulator and sonicate until clear; then, add an equal volume of buffer containing solubilizer, viscosity modifier, etc., for dilution, and immediately vortex to mix; finally, add an appropriate volume of alkali regulator to adjust the solution pH to approximately 7, to prepare an eye drop formulation.
Using the in situ salt formation method, the compound is first dispersed in a solution containing Hydroxypropyl-β-cyclodextrin, then different acids are added to adjust the pH to 3-5, allowing the compound to fully or nearly fully dissolve, followed by adding the remaining components and adjusting the pH to approximately 7. […] Based on the visual dissolution effect after acid addition, methanesulfonic acid, acetic acid, and lactic acid were preliminarily selected as pH regulators. The preliminarily selected acids were used in subsequent tests with higher compound concentrations. Table 18 Formulation Composition and State

[2] = Thermodynamic solubility test; type: physicochemical; conditions: buffer solution, aqueous buffer, thermodynamic from solid; thermodynamic solubility, room temperature, 8 hours shaking; buffers pH 2.0, 6.5, 7.4 used, pH of the tabulated value not given
Outline: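 Samples sonicated 10 min, shaken 8 h at room temperature, re-sonicated and centrifuged at 13000 rpm for 15 min. Supernatant recentrifuged and analysed by LC-MS, with concentrations quantified against a 3–5 point calibration curve.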

melanin = test: Compound binding to melanin; type: in vitro ADME; conditions: cuttlefish (Sepia officinalis), melanin suspension (1 mg/mL), percentage of free drug (not bound to melanin), 2 µM compound, melanin 1 mg/mL in PBS pH 7.4, 37°C
Outline: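 Compound at 2 µM final incubated with 1 mg/mL Sepia melanin in PBS pH 7.4, 37°C, 2 hours with shaking; blank in PBS with 0.1% BSA. Supernatant concentration by LC-MS/MS. Fb = 100 − (Ctest/Ccontrol) × 100%.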

[3] = Effect of gellan gum on formulation viscosity and viscosity change after adding simulated tear fluid (Example 10); type: physicochemical; conditions: compound 5 mg/mL, Gellan Gum 0.15% w/v; for Viscosity after Adding STF: simulated tear fluid added, volume ratio 3.6:1
Protocol: Example 10: Effect of Gellan Gum on Formulation Viscosity and Viscosity Change after Adding Simulated Tear Fluid
This example investigates the effect of gellan gum on formulation viscosity and simulates the scenario of eye drop instillation by adding simulated tear fluid to the formulation at a volume ratio of 3.6:1. Table 23 Effect of Gellan Gum on Formulation Viscosity
The ophthalmic drop formulation in this example was prepared using the preparation method from Example 8 (i.e., one type of Formulation II of the present invention). Except for compound , the other components in the formulation are: 30% Hydroxypropyl-β-cyclodextrin solution (containing 2% polyoxyethylene castor oil EL): 50 mM Tris(hydroxymethyl)aminomethane-Hydrochloric Acid Buffer (containing 2% Poloxamer 188, 0.3% Gellan Gum Gelrite, w/v) = 50:50 v/v, adjusted to pH using Methanesulfonic Acid and Tris(hydroxymethyl)aminomethane.

[4] = 0.05M Fumaric Acid 10, 0.5M Tris 0.5
[5] = 1M Acetic Acid 1, 0.5M Tris 0.5
[6] = 1M Lactic Acid 1, 0.5M Tris 0.5
[7] = 1M Maleic Acid 1, 0.5M Tris 1.5
[8] = 1M Methanesulfonic Acid 1, 0.5M Tris 0.5
[9] = 1M Tartaric Acid 1, 0.5M Tris 1

State Description ([1]; Table 21, Compound 10 mg/ml, 1M Methanesulfonic Acid 1%, Polyoxyethylene castor oil EL 1%, no 0.5M Tris): near-clear solution
State Description ([1]; Table 21, Compound 20 mg/ml, 1M Methanesulfonic Acid 4%, Polyoxyethylene castor oil EL 1%, 0.5M Tris 1%): near-clear solution
solubility at 8 h [2]: 564 µg/mL (≈ 1060 µM)
fraction unbound at 2 h, 2 µM (melanin): 0.01 to 0.05
Formulation Viscosity ([3]; Test temperature 25 °C): 23.27 mPa.s
Viscosity after Adding STF ([3]; Test temperature 25 °C): 27.26 mPa.s
Formulation Viscosity ([3]; Test temperature 37 °C): 9.53 mPa.s
Viscosity after Adding STF ([3]; Test temperature 37 °C): 24.06 mPa.s
SMILES: O=C(NC1CC1)c1cccc(F)c1Sc1ccc2c(/C=C/c3cnn(CCCN4CCCC4)c3)n[nH]c2c1 [Compound I-44, N-cyclopropyl-3-fluoro-2-({3-[(E)-2-{1-[3-(pyrrolidin-1-yl)propyl]-1H-pyrazol-4-yl}ethenyl]-1H-indazol-6-yl}sulfanyl)benzamide]

State Description ([1]; Compound 20 mg/ml, 1M Methanesulfonic Acid 4%, Polyoxyethylene castor oil EL 1%, 0.5M Tris 1%): solution
State Description: pH [1, 4]: ~7
State Description: state [1, 4]: suspension
State Description: pH [1, 5]: ~7
State Description: state [1, 5]: near-clear solution
State Description: pH [1, 6]: ~7
State Description: state [1, 6]: near-clear solution
State Description: pH [1, 7]: ~7
State Description: state [1, 7]: near-clear solution
State Description: pH [1, 8]: ~7
State Description: state [1, 8]: near-clear solution
State Description: pH [1, 9]: ~7
State Description: state [1, 9]: near-clear solution
solubility at 8 h [2]: 319 µg/mL (≈ 635 µM)
fraction unbound at 2 h, 2 µM (melanin): 0.01 to 0.05
Formulation Viscosity ([3]; Test temperature 25 °C): 19.01 mPa.s
Viscosity after Adding STF ([3]; Test temperature 25 °C): 24.19 mPa.s
Formulation Viscosity ([3]; Test temperature 37 °C): 7.97 mPa.s
Viscosity after Adding STF ([3]; Test temperature 37 °C): 21.95 mPa.s
SMILES: CCNC(=O)c1cc(F)ccc1Sc1ccc2c(/C=C/c3ccc(CN4CCCC4)cn3)n[nH]c2c1 [Compound I-97, N-ethyl-5-fluoro-2-({3-[(E)-2-{5-[(pyrrolidin-1-yl)methyl]pyridin-2-yl}ethenyl]-1H-indazol-6-yl}sulfanyl)benzamide]
State Description ([1]; Compound 10 mg/ml, 1M Acetic Acid 2%, no Polyoxyethylene castor oil EL, 0.5M Tris 1%): pH ~7, near-clear solution, with opalescence
State Description ([1]; Compound 10 mg/ml, 1M Lactic Acid 2%, no Polyoxyethylene castor oil EL, 0.5M Tris 1%): pH ~7, near-clear solution, with opalescence
State Description ([1]; Compound 10mg/ml, 1M Methanesulfonic Acid 2%, no Polyoxyethylene castor oil EL, 0.5M Tris 1%): pH ~7, near-clear solution, with opalescence
State Description ([1]; Compound 15 mg/ml, 1M Methanesulfonic Acid 3%, no Polyoxyethylene castor oil EL, 0.5M Tris 1%): pH ~7, near-clear solution, with opalescence
State Description ([1]; Compound 20 mg/ml, 1M Methanesulfonic Acid 4%, no Polyoxyethylene castor oil EL, 0.5M Tris 0.5%): pH ~7, near-clear solution, with opalescence
